OCc1ccc(O[C@@H]2O[C@H](CO)[C@@H](O)[C@H](O)[C@H]2O)cc1
solubility (mole fraction)
Conditions	273.15 K	278.15 K	283.15 K	288.15 K	293.15 K	298.15 K	303.15 K	308.15 K	313.15 K
in 1,4-dioxane	–	–	–	0.00324	0.00373	0.0043	0.00493	0.00562	0.0063
in acetone	0.00097	0.00117	0.00142	0.00171	0.00199	0.00233	0.00273	0.00318	0.00368
in acetonitrile	0.00066	0.00076	0.00088	0.001	0.00115	0.0013	0.00147	0.00166	0.00188
in cyclohexane	0.000383	0.000624	0.000909	0.00125	0.0016	0.00213	0.00261	0.00326	0.00396
in cyclohexanone	0.00128	0.00152	0.00185	0.0022	0.00257	0.00299	0.00344	0.00396	0.00455
in ethanol	0.00085	0.00105	0.00129	0.00157	0.00188	0.0022	0.00255	0.00296	0.00337
in ethyl acetate	0.00174	0.002	0.00234	0.00274	0.00318	0.00364	0.00418	0.00481	0.00543
in isopropanol	0.00114	0.00139	0.00169	0.002	0.00235	0.00271	0.00312	0.00356	0.00403
in n-butanol	0.0368	0.0395	0.0423	0.0454	0.0486	0.0521	0.0557	0.0595	0.0633
in n-propanol	0.00074	0.00094	0.00115	0.00138	0.00165	0.00194	0.00226	0.00262	0.00301
in toluene	0.00148	0.0018	0.00212	0.00248	0.00288	0.0033	0.00378	0.00431	0.00493

Source: BigSolDB 2.1
